Measurements: paper PMC6540907, “The nuclear export inhibitor aminoratjadone is a potent effector in extracellular-targeted drug conjugates” (Chemical Science, 2019)

Legend:
[1] = parameters: method as in PMID 8761384; conditions: standalone drug; cited from earlier work
KB-3.1 cells = assay: Flow cytometry, fluorescence intensity per cell; format: cell-based, human; conditions: KB-3.1, 1 µM, 30 min, 37 °C
Procedure: Analysis of cell labeling with fluorescein-labeled conjugates
All cell lines were maintained as recommended by the American Type Culture Collection in DMEM or RPMI
containing 5% glutamine (Thermo Fisher Scientific, Waltham, USA) supplemented with 10% FBS (Thermo
Fisher Scientific, Waltham, USA). For flow cytrometric analysis cells were detached by trypsin and the
density was adjusted to 2 x 10^6 cells/ml. The cell suspension was incubated with compounds at 1µM final
concentration for 30min at 37°C, followed by two washing steps in PBS. For analysis of fluorescein intensity
a LSRFortessa™ with FACSDiva™ software (BD Biosciences, Heidelberg, Germany) with the 488nm laser in
combination with 525/50nm band pass filter was used. Data was evaluated using FlowJo software
(FLOWJO LLC, Oregon, US).

nuclear export = tested on: nuclear export; parameters: method as in PMID 20055390, PMID 26833854; conditions: cited from earlier work
CRM1 [2] = molecular target: T1, CRM1 (Homo sapiens, UniProt O14980); assay: Nuclear export inhibition, fluorescent translocation biosensor in recombinant HeLa cells; format: cell-based; parameters: This cellular assay uses HeLa cells that express a recombinant fusion protein; endogenous in cells; host or cells: HeLa cells stably expressing the NLS-GST-GFP-RevNES translocation biosensor (HeLaRevBio); conditions: nuclear export inhibition IC50, HeLa cells expressing translocation biosensor, 1 h incubation
CRM1 [3] = molecular target: T1, CRM1; assay: Streptavidin pull-down from HeLa cell lysate with LC-MS/MS identification; format: binding; parameters: endogenous in cells; host or cells: HeLa cells (treated live with biotin conjugate 36, then lysed); conditions: HeLa cells, 100 ng mL–1, 5 h; control additionally incubated with an excess of 1
Procedure: To verify that this activity was indeed CRM1-mediated, HeLa cells were incubated with 36 at a concentration of 100 ng mL^–1 for 5 h and lysed.
The cell lysate was incubated with streptavidin-coupled sepharose beads, and bound proteins were eluted, digested and identified by LC-MS/MS.
Streptavidin-Pull-down with Ratjadone-biotin and identification of exportin by LC-MSMS A chemical pull down was performed to verify binding of ratjadone to Crm1. HeLa cells were treated with ratjadone-biotin, ratjadone or both at 0.1μg/ml final concentration for 5h. Cells were detached by scraping, washed twice in PBS and lysed in MPER-buffer (Thermo Fisher, Waltham, USA) supplemented with complete protease inhibitor (Roche, Mannheim, Germany). After 5min incubation on ice the lysate was centrifuged (20min, 13000rpm, 4°C) and the supernatant was incubated with streptavidin sepharose high performance (GE healthcare, Freiburg, Germany) overnight at 4°C. The next day beads were washed twice with PBS and resuspended in elution buffer (Roth) and heated to 95°C for 10min. 5% were tested on WesternBlot with a biotin-specific antibody.
Figure S12: Gel of α-Streptavidin pulldown experiment: Identification of protein band in the eluat of Biotin-PEG3-16S- […]

folate receptor-α, FRα = molecular target: folate receptor-α, FRα; parameters: method as in ref 31 = [31]; Lu Y. Low P. S. Adv. Drug Delivery Rev. 2012 64 342 352; conditions: read-out: folate affinity of the receptors; cited from earlier work

T1 sequence (O14980 whole entry, the tested form may be a part): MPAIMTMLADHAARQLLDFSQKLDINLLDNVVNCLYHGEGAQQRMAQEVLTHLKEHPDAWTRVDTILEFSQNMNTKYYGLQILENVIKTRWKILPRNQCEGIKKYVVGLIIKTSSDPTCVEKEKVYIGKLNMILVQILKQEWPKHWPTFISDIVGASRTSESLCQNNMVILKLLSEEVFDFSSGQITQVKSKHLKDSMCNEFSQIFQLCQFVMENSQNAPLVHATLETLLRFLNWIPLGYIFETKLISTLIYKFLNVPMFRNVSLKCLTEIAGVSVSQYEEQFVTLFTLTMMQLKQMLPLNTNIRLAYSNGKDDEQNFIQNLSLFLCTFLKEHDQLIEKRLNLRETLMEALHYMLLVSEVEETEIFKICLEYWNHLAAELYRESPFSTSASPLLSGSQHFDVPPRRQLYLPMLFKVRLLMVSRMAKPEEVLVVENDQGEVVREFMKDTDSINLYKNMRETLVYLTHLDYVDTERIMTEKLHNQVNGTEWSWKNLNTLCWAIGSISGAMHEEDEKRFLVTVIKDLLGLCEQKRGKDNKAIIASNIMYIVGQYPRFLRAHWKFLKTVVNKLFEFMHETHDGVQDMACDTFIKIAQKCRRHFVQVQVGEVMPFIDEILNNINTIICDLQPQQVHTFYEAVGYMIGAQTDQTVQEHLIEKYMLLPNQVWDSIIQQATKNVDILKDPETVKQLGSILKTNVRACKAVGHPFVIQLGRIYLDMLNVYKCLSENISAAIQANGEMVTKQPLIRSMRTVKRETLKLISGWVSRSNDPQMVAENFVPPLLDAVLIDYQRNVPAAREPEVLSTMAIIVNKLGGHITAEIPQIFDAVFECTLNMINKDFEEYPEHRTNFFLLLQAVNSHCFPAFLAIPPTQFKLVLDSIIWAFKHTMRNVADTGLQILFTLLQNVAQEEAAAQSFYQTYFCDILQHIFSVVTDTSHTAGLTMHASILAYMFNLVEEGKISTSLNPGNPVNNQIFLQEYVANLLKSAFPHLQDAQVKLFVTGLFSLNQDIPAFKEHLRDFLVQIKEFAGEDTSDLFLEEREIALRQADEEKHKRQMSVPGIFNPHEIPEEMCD

**Q.** For `CCC(=C/[C@H](C)C/C=C/C(C)=C/[C@@H](C)C(=O)[C@@H](C)[C@H](O)[C@@H](C)C/C(C)=C/C(=O)O)/C=C/[C@@H]1OC(=O)C=C[C@@H]1C` [Compound 5, leptomycin B], which “outcome of early clinical trials” value [1] is on record?
**A.** Its value is “failed due to its high systemic toxicity”.

**Q.** For `O=C1OC2(c3ccc(O)cc3Oc3cc(O)ccc32)c2ccccc21` [fluorescein], which “fluorescence intensity per cell” value (KB-3.1 cells) is on record?
**A.** Its value is “did not label the cells”.

**Q.** Which “concentration at which nuclear export is inhibited” value (nuclear export) does the source give for `CCC(=C/C(C)C)/C=C/[C@H]1CC=CC(=O)O1` [Compound 8] here?
**A.** Its value is 25 nM.

**Q.** Which IC50 (CRM1 [2]) does the source give for `CC=CC1OC(C(C=CC=C(C)CC(C)C=C(C)C=CC2CC=CC(=O)O2)NC(=O)OCCc2cn(CCOCCOCCOCCNC(=O)CCCCC3SCC4NC(=O)NC43)nn2)CC(O)C1C` (stereo not drawn) [Compound 36, biotin-PEG3-16S-aminoratjadone] here?
**A.** Its IC50 is 0.152 µM.

**Q.** And the “CRM1 identified in streptavidin pull-down” value (CRM1 [3])?
**A.** The value was “clearly identified in this manner and strongly enriched”.
